# Experimental data: US20170107212A1, “NOVEL COMPOUNDS” (Bayer Pharma Aktiengesellschaft, priority 2014, published 2017)
# Columns and labels:
# [1] = test system: constitutive active colorectal cancer cell (CRC) Wnt pathway, HCT116 TOPFlash; assay: Cellular reporter assay, HCT116 Super TopFlash (constitutive active Wnt pathway), luciferase expression; assay type: cell-based; conditions: Homo sapiens, HCT-116, 36 h, HCT116 Super TopFlash reporter cells, 36 hours incubation, dilution series 50 μM to 15 nM
# Protocol: In order to discover and characterize small molecules which inhibit the constitutive active colorectal cancer cell (CRC) Wnt pathway, a cellular reporter assay was employed. The corresponding assay cell was generated by transfection of the colorectal cancer cell line HCT116 (ATCC, #CCL-247) with the Super TopFlash vector (Morin, Science 275, 1997, 1787-1790; Molenaar et al., Cell 86 (3), 1996, 391-399). The HCT116 cell line is cultivated at 37° C. and 5% CO2 in DMEM/F-12 (Life Technologies, #11320-074), supplemented with 2 mM glutamine, 20 mM HEPES, 1.4 mM pyruvate, 0.15% Na-bicarbonate and 10% foetal bovine serum (GIBCO, #10270), this cancer cell line is pathophysiological relevant since it carries a deletion of position S45 in the β-catenin gene, leading to constitutive active Wnt signaling. Stable transfectants were generated by cotransfection with pcDNA3 and selection of stable transfected cells with 1 mg/ml G418.
# (§1) In preparation of the assay, the two cell lines were plated 24 hours before at 10000 cells per well of a 384 micro titre plate (MTP) in 30 μL growth medium. Selective inhibitory activity for small molecules on the mutated Wnt pathway was determined after parallel incubation of both (TOP and FOP) HCT116 reporter cell lines with a compound dilution series from 50 μM to 15 nM in steps of 3.16-fold dilutions in CAFTY buffer (130 mM NaCl, 5 mM KCl, 20 mM HEPES, 1 mM MgCl2, 5 mM NaHCO3, pH 7.4) containing 2 mM Ca^2+ and 0.01% BSA. The compounds were thereby serially prediluted in 100% DMSO and thereafter in addition 50 fold into the CAFTY compound dilution buffer (described above). From this dilution 10 μL were added to the cells in 30 μL growth medium and incubated for 36 hours at 37° C. and 5% CO2. Thereafter luciferase assay buffer (1:1 mixture of luciferase substrate buffer (20 mM Tricine, 2.67 mM MgSO4, 0.1 mM EDTA, 4 mM DTT, 270 μM Coenzyme A, 470 μM Luciferin, 530 μM ATP, ph adjusted to pH 7.8 with a sufficient volume of 5M NaOH) and Triton buffer (30 mL Triton X-100, 115 mL glycerol, 308 mg Dithiothreitol, 4.45 g Na2HPO4.2H2O, 3.03 g TRIS HCl, ad 1 l H20, pH 7.8) was added as equal volume to the compound solution on the cells to determine luciferase expression as a measure of Wnt signaling activity in a luminometer.
# HCT116 FOPFlash = assay: Control reporter assay, HCT116 FOP control vector (non-functional TCF elements), luciferase expression; assay type: cell-based; conditions: Homo sapiens, HCT-116, 36 h, HCT116 FOP control reporter cells, 36 hours incubation, dilution series 50 μM to 15 nM
# Protocol: In a parallel approach, HCT116 cells were cotransfected with the FOP control vector and pcDNA3. The FOP vector is identical to the TOP construct, but it contains instead of functional TCF elements a randomized, non-functional sequence. For this transfection a stable transfected cell line was generated as well.
# as §1
Compound,IC50 [1] [µM],IC50 (HCT116 FOPFlash) [µM]
"CN1CCN(CC(=O)Nc2cc(C(=O)Nc3nnc(-c4cnccn4)s3)ccc2OC(F)(F)F)CC1 [Example 97, 3-{[(4-methylpiperazin-1-yl)acetyl]amino}-N-[5-(pyrazin-2-yl)-1,3,4-thiadiazol-2-yl]-4-(trifluoromethoxy)benzamide]",7.05,≥ 50
"Cc1scnc1-c1nnc(NC(=O)c2ccc(OC(F)(F)F)c(NC(=O)CN3CCOCC3)c2)s1 [Example 105, N-[5-(5-methyl-1,3-thiazol-4-yl)-1,3,4-thiadiazol-2-yl)-3-[(morpholin-4-ylacetyl)amino]-4-(trifluoromethoxy)benzamide]",≥ 50,≥ 50
"Cc1nc(-c2nnc(NC(=O)c3ccc(OC(F)(F)F)c(NC(=O)CN4CCOCC4)c3)s2)cs1 [Example 95, N-[5-(2-methyl-1,3-thiazol-4-yl)-1,3,4-thiadiazol-2-yl]-3-[(morpholin-4-ylacetyl)amino]-4-(trifluoromethoxy)benzamide]",25.3,≥ 50
"O=C(CN1CCOCC1)Nc1cc(C(=O)Nc2nnc(-c3cnccc3C(F)(F)F)s2)ccc1OC(F)(F)F [Example 110, 3-[(morpholin-4-ylacetyl)amino)-4-(trifluoromethoxy)-N-{5-[4 (trifluoromethyl)pyridin-3-yl)-1,3,4-thiadiazol-2-yl}benzamide]",33,≥ 50
"Cc1csc(-c2nnc(NC(=O)c3ccc(OC(F)(F)F)c(NC(=O)CN4CCN(C)CC4)c3)s2)n1 [Example 63, 3-{[(4-methylpiperazin-1-yl)acetyl]amino}-N-[5-(4-methyl-1,3-thiazol-2-yl)-1,3,4-thiadiazol-2-yl]-4-(trifluoromethoxy)benzamide]",1.08,43.5
"COCCCOc1ccc(C(=O)Nc2nnc(-c3cnccc3C)s2)cc1NC(=O)CN1CCN(C)CC1 [Example 114, 4-(3-methoxypropoxy)-3-{[(4-methylpiperazin-1-yl)acetyl)amino}-N-[5-(4-methylpyridin-3-yl)-1,3,4-thiadiazol-2-yl]benzamide]",26.1,≥ 50
"O=C(Nc1nnc(-c2cccnc2)s1)c1ccc(Cl)c(NC(=O)C2(N3CCN(C4CC4)CC3)CC2)c1 [Example 85, 4-chloro-3-({[1-(4-cyclopropylpiperazin-1-yl)cyclopropyl]carbonyl}amino)-N-[5-(pyridin-3-yl)-1,3,4-thiadiazol-2-yl]benzamide]",12.5,≥ 50
"CN1CCN(CC(=O)Nc2cc(C(=O)Nc3nnc(-c4cnccc4C(F)(F)F)s3)ccc2OC(F)(F)F)CC1 [Example 70, 3-{[(4-methylpiperazin-1-yl)acetyl]amino}-4-(trifluoromethoxy)-N-{5-[4-(trifluoromethyl)pyridin-3-yl)-1,3,4-thiadiazol-2-yl}benzamide]",5.15,≥ 50
"O=C(CN1CCOCC1)Nc1cc(C(=O)Nc2nnc(-c3cncnc3)s2)ccc1OC(F)(F)F [Example 69, 3-[(morpholin-4-ylacetyl)amino]-N-[5-(pyrimidin-5-yl)-1,3,4-thiadiazol-2-yl]-4-(trifluoromethoxy)benzamide]",2.45,≥ 50
"O=C(CN1CCOCC1)Nc1cc(C(=O)Nc2nnc(-c3nccs3)s2)ccc1OC(F)(F)F [Example 101, 3-[(morpholin-4-ylacetyl)amino]-N-[5-(1,3-thiazol-2-yl)-1,3,4-thiadiazol-2-yl]-4-(trifluoromethoxy)benzamide]",≥ 50,≥ 50
"Nc1ccc(-c2nnc(NC(=O)c3ccc(OC4CC4)c(NC(=O)CN4CCOCC4)c3)s2)cn1 [Example 119, N-[5-(6-aminopyridin-3-yl)-1,3,4-thiadiazol-2-yl]-4-(cyclopropyloxy)-3-[(morpholin-4-ylacetyl)amino]benzamide]",≥ 50,≥ 50
"O=C(CN1CCOCC1)Nc1cc(C(=O)Nc2nnc(-c3ncccc3F)s2)ccc1OC(F)(F)F [Example 96, N-[5-(3-fluoropyridin-2-yl)-1,3,4-thiadiazol-2-yl]-3-[(morpholin-4-ylacetyl)amino]-4-(trifluoromethoxy}benzamide]",≥ 50,≥ 50
"Cc1ncc(-c2nnc(NC(=O)c3ccc(OC(F)(F)F)c(NC(=O)CN4CCN(C)CC4)c3)s2)s1 [Example 99, 3-{[(4-methylpiperazin-1-yl)acetyl)amino}-N-[5-(2-methyl-1,3-thiazol-5-yl)-1,3,4-thiadiazol-2-yl]-4-(trifluoromethoxy)benzamide]",8.55,≥ 50
"O=C(CN1CCOCC1)Nc1cc(C(=O)Nc2nnc(-c3cncnc3)s2)ccc1OC1CC1 [Example 72, 4-(cyclopropyloxy)-3-[(morpholin-4-ylacetyl)amino]-N-[5-(pyrimidin-5-yl)-1,3-4-thiadiazol-2-yl)benzamide]",1.3,≥ 50
"O=C(CN1CCOCC1)Nc1cc(C(=O)Nc2nnc(-c3cccnc3)s2)ccc1OC1COC1 [Example 113, 3-[(morpholin-4-ylacetyl)amino)-4-(oxetan-3 yloxy)-N-[5-(pyridin-3-yl)-1,3,4-thiadiazol-2-yl]benzamide]",27,≥ 50

# Stronger by IC50 [1], values ahead:
IC50 [1] [µM],IC50 (HCT116 FOPFlash) [µM],Compound
0.0209,≥ 50,"CC(C(=O)Nc1cc(C(=O)Nc2ccc(-c3ccc(N)nc3)nc2)ccc1OC(F)(F)F)N1CCOCC1 (stereo not shown) [Example 3, N-(6′-amino-2,3′-bipyridin-5-yl)-3-{[2-(morpholin-4-yl)propanoyl]amino}-4-(trifluoromethoxy)benzamide]"
0.114,≥ 50,"CN1CCN(CC(=O)Nc2cc(C(=O)Nc3nnc(-c4cncc(Cl)c4)s3)ccc2OC(F)(F)F)CC1 [Example 40, formic acid-N-[5-(5-chloropyridin-3-yl)-1,3,4-thiadiazol-2-yl]-3-{[(4-methylpiperazin-1-yl)acetyl]amino}-4-(trifluoromethoxy)benzamide (1:1)]"
0.535,≥ 50,"O=C(Nc1nnc(-c2cncnc2)s1)c1ccc(OC(F)(F)F)c(NC(=O)C2(N3CCOCC3)CC2)c1 [Example 30, 3-({[1-(morpholin-4-yl)cyclopropyl]carbonyl}amino)-N-[5-(pyrimidin-5-yl)-1,3,4-thiadiazol-2-yl]-4-(trifluoromethoxy)benzamide]"
1.01,8.55,"Cc1ccnc(-c2nnc(NC(=O)c3ccc(OC(F)(F)F)c(NC(=O)CN4CCN(C)CC4)c3)s2)c1 [Example 62, 3-{[(4-methylpiperazin-1-yl)acetyl]amino}-N-[5-(4-methylpyridin-2-yl)-1,3,4-thiadiazol-2-yl]-4-(trifluoromethoxy)benzamide]"
0.197,≥ 50,"Nc1ncc(-c2nnc(NC(=O)c3ccc(OC(F)(F)F)c(NC(=O)C4(N5CCOCC5)CC4)c3)s2)cn1 [Example 33, N-[5-(2-aminopyrimidin-5-yl)-1,3,4-thiadiazol-2-yl]-3-({[1-(morpholin-4-yl)cyclopropyl]carbonyl}amino)-4-(trifluoromethoxy)benzamide]"
0.24,≥ 50,"Nc1ccc(-c2nnc(NC(=O)c3ccc(OC(F)(F)F)c(NC(=O)CN4CCOCC4)c3)s2)cn1 [Example 55, N-[5-(6-aminopyridin-3-yl)-1,3,4-thiadiazol-2-yl]-3-[(morpholin-4-ylacetyl)amino]-4-(trifluoromethoxy)benzamide]"
0.47,≥ 50,"Cc1cncc(-c2nnc(NC(=O)c3ccc(OC(F)(F)F)c(NC(=O)CN4CCOCC4)c3)s2)c1 [Example 56, N-[5-(5-methylpyridin-3-yl)-1,3,4-thiadiazol-2-yl]-3-[(morpholin-4-ylacetyl)amino]-4-(trifluoromethoxy)benzamide]"
0.128,≥ 50,"CN1CCN(C2(C(=O)Nc3cc(C(=O)Nc4nnc(-c5cnc(N)nc5)s4)ccc3OC(F)(F)F)CC2)CC1 [Example 32, N-[5-(2-aminopyrimidin-5-yl)-1,3,4-thiadiazol-2-yl]-3-({[1-(4-methylpiperazin-1-yl)cyclopropyl]carbonyl}amino)-4-(trifluoromethoxy)benzamide]"
